Measurements as given in ChEMBL document CHEMBL2429735, “Preparation of imidazoles as potent calcitonin gene-related peptide (CGRP) antagonists” (Bioorg Med Chem Lett, 2013).

What was measured:
[1] = target: Calcitonin gene-related peptide type 1 receptor (Homo sapiens, UniProt O60894+Q16602); assay: Antagonist activity at human CGRP receptor expressed in human SK-N-MC cells assessed as inhibition of CGRP-stimulated cAMP production; type: functional, cell-based
[2] = tested on: Liver microsomes; assay: Metabolic stability in human liver microsomes assessed as compound remaining; type: ADME, Microsome
[3] = tested on: Liver; assay: Metabolic stability in mouse liver microsomes assessed as compound remaining; type: ADME, Microsome
[4] = tested on: Liver microsomes; assay: Metabolic stability in rat liver microsomes assessed as compound remaining; type: ADME, Microsome
[5] = Permeability of the compound by PAMPA method at pH 7.4; type: ADME; settings: read-out: permeability

Calcitonin gene-related peptide type 1 receptor, sequence (Q16602 whole entry, one chain of several): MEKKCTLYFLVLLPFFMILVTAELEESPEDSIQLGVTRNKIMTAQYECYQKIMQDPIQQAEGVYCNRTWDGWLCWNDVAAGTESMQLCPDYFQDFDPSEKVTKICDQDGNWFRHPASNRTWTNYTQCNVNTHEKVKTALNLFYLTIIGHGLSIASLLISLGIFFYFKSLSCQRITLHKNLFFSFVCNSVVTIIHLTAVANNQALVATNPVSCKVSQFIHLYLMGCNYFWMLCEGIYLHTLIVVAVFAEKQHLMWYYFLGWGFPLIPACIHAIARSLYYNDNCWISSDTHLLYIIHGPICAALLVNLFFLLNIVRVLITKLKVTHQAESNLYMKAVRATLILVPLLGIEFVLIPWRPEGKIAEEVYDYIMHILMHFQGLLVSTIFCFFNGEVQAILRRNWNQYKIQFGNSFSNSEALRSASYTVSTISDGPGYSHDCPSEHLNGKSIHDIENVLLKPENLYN

Cc1cc(CC(NC(=O)N2CCC(N3Cc4ccccc4NC3=O)CC2)c2nccn2CCc2ccccc2)cc2cn[nH]c12 (racemic) showed an IC50 [1] of 0.88 nM.
With Cc1cc(CC(NC(=O)N2CCC(N3Cc4ccccc4NC3=O)CC2)c2nccn2Cc2ccccc2)cc2cn[nH]c12 (racemic) the IC50 [1] was 0.77 nM.
Cc1cc(Cn2ccnc2C(Cc2cc(C)c3[nH]ncc3c2)NC(=O)N2CCC(N3Cc4ccccc4NC3=O)CC2)cc(Cl)n1 (racemic) gave a Stability [2] of 2%, a Stability [3] of 0% and an IC50 [1] of 0.078 nM. The Stability [4] was 2% and the Papp [5] was 3.8 ×10⁻⁶ cm/s.
With Cc1cc(CC(NC(=O)N2CCC(N3Cc4ccccc4NC3=O)CC2)c2nccn2Cc2cc(F)cc(F)c2)cc2cn[nH]c12 (racemic) the Stability [2] was 84%, the Stability [3] was 66% and the IC50 [1] was 0.39 nM. For the same molecule, the Stability [4] was 78%.
With Cc1cc(Cn2ccnc2C(Cc2cc(C)c3[nH]ncc3c2)NC(=O)N2CCC(N3Cc4ccccc4NC3=O)CC2)ccn1 (racemic) the Stability [2] was 1%, the Stability [3] was 1% and the IC50 [1] was 0.13 nM. It also gave a Stability [4] of 2%.
Work on Cc1cc(CC(NC(=O)N2CCC(N3Cc4ccccc4NC3=O)CC2)c2nccn2Cc2ccccn2)cc2cn[nH]c12 (racemic) yielded a Stability [2] of 1%, a Stability [3] of 0% and an IC50 [1] of 1.6 nM. It also gave a Stability [4] of 1%.
Molecule Cc1cc(CC(NC(=O)N2CCC(N3Cc4ccccc4NC3=O)CC2)c2nccn2Cc2ccc(C(C)(C)C)cc2)cc2cn[nH]c12 (racemic) has an IC50 [1] of 0.19 nM.
Cc1cc(CC(NC(=O)N2CCC(N3Cc4ccccc4NC3=O)CC2)c2ncc(C)n2Cc2cccc(F)c2)cc2cn[nH]c12 (racemic) gave a Stability [2] of 100%, a Stability [3] of 85% and an IC50 [1] of 0.37 nM. It also gave a Stability [4] of 87%.
Cc1cc(CC(OC(=O)N2CCC(c3cc4ccccc4[nH]c3=O)CC2)c2ncc3n2CCNC3)cc2cn[nH]c12 (racemic) gave an IC50 [1] of 2.9 nM.
In the case of Cc1cc(CC(NC(=O)N2CCC(N3Cc4ccccc4NC3=O)CC2)c2nc(Br)c(Br)[nH]2)cc2cn[nH]c12 (racemic), the IC50 [1] is reported as 4.8 nM.
In the case of Cc1cc(CC(NC(=O)N2CCC(N3Cc4ccccc4NC3=O)CC2)c2nccn2Cc2cccnc2)cc2cn[nH]c12 (racemic), the Stability [2] is reported as 4%, the Stability [3] is reported as 2% and the IC50 [1] is reported as 0.42 nM. For the same molecule, the Stability [4] was 20%.
Molecule Cc1c[nH]c(C(Cc2cc(C)c3[nH]ncc3c2)NC(=O)N2CCC(N3Cc4ccccc4NC3=O)CC2)n1 (racemic) has an IC50 [1] of 120 nM.
Cc1cc(CC(NC(=O)N2CCC(N3Cc4ccccc4NC3=O)CC2)c2ncc(Br)[nH]2)cc2cn[nH]c12 (racemic) gave an IC50 [1] of 7.4 nM.
Molecule Cc1cc(CC(NC(=O)N2CCC(N3Cc4ccccc4NC3=O)CC2)c2nccn2C)cc2cn[nH]c12 (racemic) has an IC50 [1] of 4.8 nM.
Cc1cc(CC(NC(=O)N2CCC(N3Cc4ccccc4NC3=O)CC2)c2nccn2Cc2cccc(F)c2)cc2cn[nH]c12 (racemic) showed an IC50 [1] of 0.63 nM.
Molecule Cc1cc(CC(OC(=O)N2CCC(c3cc4ccccc4[nH]c3=O)CC2)c2ncc3n2CCN(Cc2ccccc2)C3)cc2cn[nH]c12 (racemic) has a Stability [2] of 41%, a Stability [3] of 9% and a Stability [4] of 32%.
For Cc1cc(CC(NC(=O)N2CCC(N3Cc4ccccc4NC3=O)CC2)c2nccn2Cc2ccc(F)cc2)cc2cn[nH]c12 (racemic), the IC50 [1] was 0.98 nM.
Molecule Cc1cc(CC(NC(=O)N2CCC(N3Cc4ccccc4NC3=O)CC2)c2nccn2Cc2ccncc2)cc2cn[nH]c12 (racemic) has an IC50 [1] of 0.83 nM.
Molecule Cc1cc(CC(NC(=O)N2CCC(N3Cc4ccccc4NC3=O)CC2)c2ncc[nH]2)cc2cn[nH]c12 (racemic) has an IC50 [1] of 97 nM.
Cc1cc(CC(NC(=O)N2CCC(N3Cc4ccccc4NC3=O)CC2)c2nccn2Cc2ccccc2F)cc2cn[nH]c12 (racemic) gave an IC50 [1] of 1.9 nM.
With Cc1cc(CC(NC(=O)N2CCC(N3Cc4ccccc4NC3=O)CC2)c2nc(Br)cn2Cc2cc(F)cc(F)c2)cc2cn[nH]c12 (racemic) the Stability [2] was 100%, the Stability [3] was 93% and the IC50 [1] was 0.39 nM. For the same molecule, the Stability [4] was 100%.
Work on Cc1cc(C[C@@H](NC(=O)N2CCC(N3Cc4cccc(F)c4NC3=O)CC2)C(=O)N2CCC(N3CCCCC3)CC2)cc2cn[nH]c12 yielded an IC50 [1] of 0.026 nM and a Papp [5] of 1.1 ×10⁻⁶ cm/s.
With Cc1cc(CC(OC(=O)N2CCC(c3cc4ccccc4[nH]c3=O)CC2)c2ncc3n2CCN(C2CCCCC2)C3)cc2cn[nH]c12 (racemic) the Stability [2] was 41%, the Stability [3] was 21% and the Stability [4] was 30%.
